The values that follow come from ChEMBL document CHEMBL1201862, “PubChem BioAssay data set” (2004).

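Cells were grown in 96-well plates and exposed to each compound for 48 hours at five concentrations; endpoints were interpolated linearly between bracketing concentrations, or set to the highest concentration if not reached. GI50 = concentration required for 50% inhibition of growth.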 The source made the active and inactive calls. Cut-off read from the data, not from the text of the source: active = GI50 up to about 1.1 µM and inactive = higher. Where only a bound is given, the exact number is not on record here.

Among the test systems are 786-0; ACHN; COLO 205; DU-145; HCC 2998; HCT-15; IGROV-1; MCF7; MDA-MB-231; MDA-N; MOLT-4; RXF 393; SF-295; SK-MEL-28; SK-MEL-2; SK-MEL-5; SW-620; UACC-62; UO-31.
Test in all cases: NCI anticancer screen, dose series, 48 h

Regarding `CC(C)NC(=O)OCc1c(COC(=O)NC(C)C)c(-c2cc[n+](COC(=O)C3CC3)cc2)n2c1CCC2`, the GI50 in the test with 786-0 was > 100 µM (inactive); in the test on ACHN, 32.4 µM (inactive); in the test with COLO 205, > 100 µM (inactive); in the test on DU-145, > 100 µM (inactive); in the test on HCC 2998, > 100 µM (inactive); in the test on HCT-15, > 100 µM. Besides, the GI50 was > 100 µM (inactive) with IGROV-1; > 100 µM (inactive) in the test on MCF7; > 100 µM (inactive) with MDA-MB-231; > 100 µM (inactive) in the test on MDA-N; > 100 µM (inactive) in the test with MOLT-4; 50.1 µM (inactive) in the test with RXF 393. Besides, the GI50 with SF-295, in the test with SK-MEL-28, with SK-MEL-2, in the test on SK-MEL-5, in the test with SW-620 and with UACC-62 was > 100 µM (inactive) in each case. Further, the GI50 in the test with UO-31 was > 100 µM (inactive).
For `COC(=O)c1ccccc1C1CN=NC12Cc1ccc3c(c1C2=O)CCC3` (centres undefined), the GI50 in the test on 786-0 was 43.4 µM (inactive); with ACHN it was 50.4 µM (inactive); in the test with COLO 205, > 100 µM (inactive); in the test with DU-145, > 100 µM (inactive); with HCC 2998 it was > 100 µM (inactive); with HCT-15, > 100 µM. Besides, the GI50 with IGROV-1 is > 100 µM (inactive); in the test on MCF7, 34.9 µM (inactive); in the test with MDA-MB-231, 75.5 µM (inactive); with MDA-N, > 100 µM (inactive); in the test with MOLT-4, 12.6 µM (inactive); in the test with RXF 393, 67.9 µM (inactive). Also, the GI50 is 70.6 µM (inactive) in the test with SF-295; > 100 µM (inactive) in the test with SK-MEL-28; > 100 µM (inactive) in the test with SK-MEL-2; 17.4 µM (inactive) with SK-MEL-5; > 100 µM (inactive) in the test with SW-620; > 100 µM (inactive) in the test on UACC-62. Besides, the GI50 in the test with UO-31 was 68.5 µM (inactive).
As for `Cc1ccc(/N=C2\OP(=O)(Nc3ccc(C)cc3)Oc3ccccc32)cc1` (centres undefined), the GI50 in the test with 786-0 was > 100 µM (inactive); with ACHN it was > 100 µM (inactive); with COLO 205 it was > 100 µM (inactive); with DU-145 it was > 100 µM (inactive); in the test on HCC 2998, > 100 µM (inactive); in the test on HCT-15, > 100 µM. Also, the GI50 is > 100 µM (inactive) with IGROV-1; 90.6 µM (inactive) with MCF7; > 100 µM (inactive) with MDA-MB-231; > 100 µM (inactive) in the test on MDA-N; > 100 µM (inactive) in the test with MOLT-4; 81.5 µM (inactive) in the test on RXF 393. Further, the GI50 is > 100 µM (inactive) with SF-295; > 100 µM (inactive) in the test on SK-MEL-28; > 100 µM (inactive) with SK-MEL-2; 73.1 µM (inactive) with SK-MEL-5; > 100 µM (inactive) with SW-620; > 100 µM (inactive) with UACC-62. For the same compound, the GI50 in the test with UO-31 is 97.7 µM (inactive).
Turning to `N=C(N)/N=C(\N)Nc1cnccn1`, the GI50 was > 100 µM (inactive) in the test on 786-0; > 100 µM (inactive) in the test with ACHN; > 100 µM (inactive) in the test with COLO 205; > 100 µM (inactive) in the test with DU-145; > 100 µM (inactive) with HCC 2998; > 100 µM in the test on HCT-15. Moreover, the GI50 in the test on IGROV-1, in the test with MCF7, in the test with MDA-MB-231, in the test with MDA-N, with MOLT-4 and in the test with RXF 393 was > 100 µM (inactive) in each case. For the same compound, the GI50 in the test with SF-295, in the test with SK-MEL-28, in the test with SK-MEL-2, in the test with SK-MEL-5, with SW-620 and with UACC-62 was > 100 µM (inactive) throughout. Moreover, the GI50 in the test with UO-31 is > 100 µM (inactive).
Turning to `CCOC(=O)CCC(NC(=O)Cc1ccc(Nc2nc3ccccc3nc2-c2ccccc2)cc1)C(=O)OCC` (centres undefined), the GI50 is 7.83 µM (inactive) in the test on 786-0; 41.5 µM (inactive) with ACHN; > 100 µM (inactive) with COLO 205; > 100 µM (inactive) in the test with DU-145; > 100 µM (inactive) with HCC 2998; > 100 µM in the test on HCT-15. The GI50 in the test on IGROV-1 was 51.8 µM (inactive); in the test on MCF7, > 100 µM (inactive); with MDA-MB-231, 16.9 µM (inactive); in the test on MDA-N it was > 100 µM (inactive); with MOLT-4, > 100 µM (inactive); in the test with RXF 393, 10.3 µM (inactive). Moreover, the GI50 was 16.1 µM (inactive) in the test with SF-295; > 100 µM (inactive) in the test on SK-MEL-28; 16.5 µM (inactive) with SK-MEL-2; > 100 µM (inactive) in the test with SK-MEL-5; > 100 µM (inactive) in the test with SW-620; 50.4 µM (inactive) in the test with UACC-62. Besides, the GI50 with UO-31 is > 100 µM (inactive).
Consider `Brc1ccc(-c2cc(-c3ccc4c(c3)OCO4)c(-c3cccs3)n2Cc2ccccc2)cc1`, for which the GI50 in the test on 786-0 was > 100 µM (inactive); with ACHN, > 100 µM (inactive); in the test on COLO 205, > 100 µM (inactive); in the test on DU-145 it was > 100 µM (inactive); in the test with HCC 2998 it was > 100 µM (inactive); in the test with HCT-15 it was > 100 µM. The GI50 with IGROV-1, in the test with MCF7, with MDA-MB-231, with MDA-N, in the test with MOLT-4 and with RXF 393 was > 100 µM (inactive) in each case. Further, the GI50 in the test on SF-295, in the test on SK-MEL-28, in the test on SK-MEL-2, in the test with SK-MEL-5, in the test on SW-620 and in the test on UACC-62 was > 100 µM (inactive) throughout. The GI50 with UO-31 is > 100 µM (inactive).
For `Cc1cn([C@H]2CN(O)C[C@@H](CO)O2)c(=O)[nH]c1=O`, the GI50 in the test on 786-0 was > 100 µM (inactive); in the test with ACHN, > 100 µM (inactive); in the test with COLO 205 it was > 100 µM (inactive); in the test with DU-145, > 100 µM (inactive); in the test on HCC 2998 it was > 100 µM (inactive); in the test on HCT-15, > 100 µM. In addition, the GI50 with IGROV-1, in the test on MCF7, with MDA-MB-231, with MDA-N, in the test with MOLT-4 and in the test on RXF 393 was > 100 µM (inactive) each time. The GI50 in the test with SF-295, with SK-MEL-28, with SK-MEL-2, in the test with SK-MEL-5, in the test on SW-620 and in the test on UACC-62 was > 100 µM (inactive) each time. Further, in the test with UO-31, the GI50 was > 100 µM (inactive).
For `O=C(O)[C@@H]1CCCN1` [PROLINE], the GI50 was > 100 µM (inactive) in the test with 786-0; > 100 µM (inactive) with ACHN; > 100 µM (inactive) in the test with COLO 205; > 100 µM (inactive) in the test with DU-145; > 100 µM (inactive) with HCC 2998; > 100 µM with HCT-15. In addition, the GI50 in the test with IGROV-1, in the test on MCF7, with MDA-MB-231, in the test on MDA-N, in the test with MOLT-4 and with RXF 393 was > 100 µM (inactive) in each case. In addition, the GI50 with SF-295, in the test on SK-MEL-28, with SK-MEL-2, in the test on SK-MEL-5, with SW-620 and in the test with UACC-62 was > 100 µM (inactive) in each case. The GI50 in the test with UO-31 was > 100 µM (inactive).
For `N#CC1(O)CCCCCCCCCCC1`, the GI50 in the test on 786-0 was > 100 µM (inactive); with ACHN, > 100 µM (inactive); with COLO 205 it was > 100 µM (inactive); in the test with DU-145, > 100 µM (inactive); in the test on HCC 2998, > 100 µM (inactive); in the test with HCT-15 it was > 100 µM. Further, the GI50 in the test with IGROV-1, in the test with MCF7, with MDA-MB-231, with MDA-N, in the test on MOLT-4 and in the test with RXF 393 was > 100 µM (inactive) each time. Moreover, the GI50 in the test on SF-295, in the test on SK-MEL-28, with SK-MEL-2, with SK-MEL-5, in the test with SW-620 and in the test with UACC-62 was > 100 µM (inactive) throughout. Also, the GI50 in the test on UO-31 is > 100 µM (inactive).
For the compound `COC(=O)C(Cc1c[nH]c2ccccc12)NP(=O)(O)OCC1OC(n2cc(Br)c(=O)[nH]c2=O)CC1O` (centres undefined), the GI50 was > 100 µM (inactive) with 786-0; > 100 µM (inactive) in the test with ACHN; > 100 µM (inactive) in the test on COLO 205; > 100 µM (inactive) in the test on DU-145; > 100 µM (inactive) with HCC 2998; > 100 µM in the test on HCT-15. Besides, the GI50 with IGROV-1, in the test on MCF7, in the test on MDA-MB-231, in the test with MDA-N, in the test with MOLT-4 and in the test with RXF 393 was > 100 µM (inactive) each time. Further, the GI50 in the test with SF-295, in the test on SK-MEL-28, with SK-MEL-2, with SK-MEL-5, in the test on SW-620 and with UACC-62 was > 100 µM (inactive) in each case. The GI50 with UO-31 was > 100 µM (inactive).
`O=C1Nc2ccccc2C1Cc1ccc([N+](=O)[O-])cc1` (centres undefined): the GI50 in the test with 786-0 is > 100 µM (inactive); in the test on ACHN, > 100 µM (inactive); in the test on COLO 205, 50 µM (inactive); in the test with DU-145, > 100 µM (inactive); with HCC 2998, > 100 µM (inactive); in the test on HCT-15, > 100 µM. Further, the GI50 in the test on IGROV-1 was 21.6 µM (inactive); in the test with MCF7 it was > 100 µM (inactive); in the test on MDA-MB-231, 14 µM (inactive); in the test with MDA-N it was 71.4 µM (inactive); with MOLT-4, 14.1 µM (inactive); in the test with RXF 393, > 100 µM (inactive). Further, the GI50 in the test with SF-295 was > 100 µM (inactive); in the test on SK-MEL-28, > 100 µM (inactive); with SK-MEL-2, > 100 µM (inactive); in the test with SK-MEL-5 it was 57.5 µM (inactive); in the test with SW-620 it was > 100 µM (inactive); with UACC-62 it was > 100 µM (inactive). Besides, the GI50 in the test with UO-31 is > 100 µM (inactive).
